{"source": "patent US7056734B1", "about": "“Differentiation of non-insulin producing cells into insulin producing cells by GLP-1 or exendin-4 and uses thereof” (The United States of America as represented by the …, priority 1998, dated 2006)", "origin": "cited, not measured here", "system": "AR42J cells", "details": "Mashima et al., 1996; cited from earlier work", "data": [{"substance": "HGF: hepatocyte growth factor", "values": [{"measurement": "AR42J cells converted into insulin-producing / insulin positive cells", "value": "about 3%"}]}]}
